Source: patent US5811421A, “Naphthyl and dihydronaphthyl intermediates, compounds, compositions, and methods” (Eli Lilly and Company, priority 1996, dated 1998)
Where a name gives a salt, the structure may show the parent alone.

Legend:
serum cholesterol = test: Serum cholesterol in ovariectomized rats, 4-day oral dosing; format: in vivo, female Sprague Dawley rats; conditions: for Serum Cholesterol (% decrease vs. OVX): OVX rats
Method: (§1) In the examples illustrating the methods of the present invention, a post-menopausal model was used in which effects of different treatments upon circulating lipids were determined.
(§2) Seventy-five day old female Sprague Dawley rats (weight range of 200 to 225g) were obtained from Charles River Laboratories (Portage, MI). The animals were either bilaterally ovariectomized (OVX) or exposed to a Sham surgical procedure at Charles River Laboratories, and then shipped after one week. Upon arrival, they were housed in metal hanging cages in groups of 3 or 4 per cage and had ad libitum access to food (calcium content approximately 0.5%) and water for one week. Room temperature was maintained at 22.2°±1.7° C. with a minimum relative humidity of 40%. The photoperiod in the room was 12 hours light and 12 hours dark.
(§3) Dosing Regimen Tissue Collection. After a one week acclimation period (therefore, two weeks post-OVX) daily dosing with test compound was initiated. 17α-ethynyl estradiol or the test compound were given orally, unless otherwise stated, as a suspension in 1% carboxymethylcellulose or dissolved in 20% cyclodextrin. Animals were dosed daily for 4 days. Following the dosing regimen, animals were weighed and anesthetized with a ketamine: xylazine (2:1, V:V) mixture and a blood sample was collected by cardiac puncture. The animals were then sacrificed by asphyxiation with CO2, the uterus was removed through a midline incision, and a wet uterine weight was determined.
Cholesterol Analysis. Blood samples were allowed to clot at room temperature for 2 hours, and serum was obtained following centrifugation for 10 minutes at 3000 rpm. Serum cholesterol was determined using a Boehringer Mannheim Diagnostics high performance cholesterol assay. Briefly the cholesterol was oxidized to cholest-4-en-3-one and hydrogen peroxide. The hydrogen peroxide was then reacted with phenol and 4-amino-phenazone in the presence of peroxidase to produce a p-quinone imine dye, which was read spectrophotemetrically at 500 nm. Cholesterol concentration was then calculated against a standard curve. The entire assay was automated using a Biomek Automated Workstation.
(§4) Data presented in Table 1 below show comparative results among ovariectomized rats, rats treated with 17α-ethynyl estradiol (EE2; an orally available form of estrogen), and rats treated with certain compounds of the present invention. […] This uterine response to estrogen is well recognized in the art.
(§5) The data presented in the Tables 1 below reflects the response of 5 to 6 rats per treatment.

[1] = test system: ovariectomized rats (uterus); test: Uterine weight in ovariectomized (OVX) rats, 4-day oral dosing; format: in vivo, female Sprague Dawley rats; conditions: for Uterine Weight (% increase vs. OVX): OVX rats
Method: as §1, §2, §3, §4, §5

[2] = test system: MCF-7 breast adenocarcinoma cells; test: MCF-7 Proliferation Assay; format: cell-based; conditions: Homo sapiens, MCF7; MCF-7 cells, tritiated thymidine incorporation, 48 hours
Method: MCF-7 Proliferation Assay MCF-7 breast adenocarcinoma cells (ATCC HTB 22) were maintained in MEM (minimal essential medium, phenol red- free, Sigma, St. Louis, Mo.) supplimented with 10% fetal bovine serum (FBS) (V/V), L-glutamine (2 mM), sodium pyruvate (1 mM), HEPES {(N-[2-hydroxyethyl]piperazine-N'-[2-ethanesulfonic acid]10 mM}, non-essential amino acids and bovine insulin (1 ug/mL) (maintenance medium). Ten days prior to assay, MCF-7 cells were switched to maintenance medium supplemented with 10% dextran coated charcoal stripped fetal bovine serum (DCC-FBS) assay medium) in place of 10% FBS to deplete internal stores of steroids. MCF-7 cells were removed from maintenance flasks using cell dissociation medium (Ca++/Mg++free HBSS (phenol red-free) supplemented with 10 mM HEPES and 2 mM EDTA). Cells were washed twice with assay medium and adjusted to 80,000 cells/mL. Approximately 100 μL (8,000 cells) were added to flat-bottom microculture wells (Costar 3596) and incubated at 37° C. in a 5% CO2 humidified incubator for 48 hours to allow for cell adherence and equilibration after transfer. Serial dilutions of drugs or DMSO as a diluent control were prepared in assay medium and 50 μL transferred to triplicate microcultures followed by 50 μL assay medium for […]. After an additional 48 hours at 37° C. in a 5% CO2 humidified incubator, microcultures were pulsed with tritiated thymidine (1 uCi/well) for 4 hours. Cultures were terminated by freezing at -70° C. for 24 hours followed by thawing and harvesting of microcultures using a Skatron Semiautomatic Cell Harvester. Samples were counted by liquid scintillation using a Wallac BetaPlace β counter. Results in Table 4 below show the IC50 for certain compounds of the present invention.

[3] = test system: Uterine Eosinophil Peroxidase (EPO); test: Uterine Eosinophil Peroxidase (EPO) Assay / eosinophil infiltration into the uterus of ovariectomized rats; format: in vivo, female Sprague Dawley rats; set-up: Uterine EPO (V. max): unit not given here; conditions: for Uterine EPO (V. max): OVX rats, oral
Method: as §1, §2, §3
Uterine Eosinophil Peroxidase (EPO) Assay. Uteri were kept at 4° C. until time of enzymatic analysis. The uteri were then homogenized in 50 volumes of 50 mM Tris buffer (pH-8.0) containing 0.005% Triton X-100. Upon addition of 0.01% hydrogen peroxide and 10 mM O-phenylenediamine (final concentrations) in Tris buffer, increase in absorbance was monitored for one minute at 450 nm. The presence of eosonophils in the uterus is an indication of estrogenic activity of a compound. The maximal velocity of a 15 second interval was determined over the initial, linear portion of the reaction curve.
As is expressed in the below data, estrogenicity also was assessed by evaluating the adverse response of eosinophil infiltration into the uterus.
as §5

[4] = test system: proximal tibiae metaphysis (bone mineral density) of ovariectomized rats; test: Osteoporosis Test Procedure: protection against bone loss in ovariectomized rats, 35 days; format: in vivo; conditions: oral; for Tibia BMD pQCT (% protection): OVX rats
Source text: Seventy-five day old female Sprague Dawley rats (weight range of 200 to 225g) were obtained from Charles River Laboratories (Portage, MI). The animals were either bilaterally ovariectomized (OVX) or exposed to a Sham surgical procedure at Charles River Laboratories, and then shipped after one week. Upon arrival, they were housed in metal hanging cages in groups of 3 or 4 per cage and had ad libitum access to food (calcium content approximately 0.5%) and water for one week. Room temperature was maintained at 22.2°±1.7° C. with a minimum relative humidity of 40%. The photoperiod in the room was 12 hours light and 12 hours dark. Following the General Preparation Procedure, infra, the rats were treated daily for 35 days (6 rats per treatment group) and sacrificed by carbon dioxide asphyxiation on the 36th day. The 35 day time period was sufficient to allow maximal reduction in bone density, measured as described herein. At the time of sacrifice, the uteri were removed, dissected free of extraneous tissue, and the fluid contents were expelled before determination of wet weight in order to confirm estrogen deficiency associated with complete ovariectomy. […] The uteri were then placed in 10% neutral buffered formalin to allow for subsequent histological analysis. The right femurs were excised and digitilized x-rays generated and analyzed by an image analysis program (NIH image) at the distal metaphysis. The proximal aspect of the tibiae from these animals were also scanned by quantitative computed tomography. In accordance with the above procedures, compounds of the present invention and ethynyl estradiol (EE2) in 20% hydroxypropyl β-cyclodextrin were orally administered to test animals. Proximal tibiae metaphysis data presented in Table 2 are the results of formula I compound treatments compared to intact and ovariectomized test animals. Results are reported as percent protection against bone loss which was calculated for individual animals by the following formula: % protection=(BMDtest BMDovx)/(BMDsham -BMDovx)×100.

[5] = 0.1 mg/kg daily for 35 days, values marked * (two tailed Student's T Test)

Row | SMILES | IC50 [2] [nM] | Serum Cholesterol (% decrease vs. OVX) (serum cholesterol; 0.1 mg/kg daily for 4 days) [%] | Serum Cholesterol (% decrease vs. OVX) (serum cholesterol; 1.0 mg/kg daily for 4 days) [%] | Serum Cholesterol (% decrease vs. OVX) (serum cholesterol; 10.0 mg/kg daily for 4 days) [%] | Uterine Weight (% increase vs. OVX) ([1]; 0.1 mg/kg daily for 4 days) [%] | Uterine Weight (% increase vs. OVX) ([1]; 1.0 mg/kg daily for 4 days) [%] | Uterine Weight (% increase vs. OVX) ([1]; 10.0 mg/kg daily for 4 days) [%] | Uterine EPO (V. max) ([3]; 0.1 mg/kg daily for 4 days) | Uterine EPO (V. max) ([3]; 1.0 mg/kg daily for 4 days) | Uterine EPO (V. max) ([3]; 10.0 mg/kg daily for 4 days) | Tibia BMD pQCT (% protection) ([4]; 0.01 mg/kg daily for 35 days) [%] | Tibia BMD pQCT (% protection) [4, 5] [%] | Tibia BMD pQCT (% protection) ([4]; 1.0 mg/kg daily for 35 days) [%] | Tibia BMD pQCT (% protection) ([4]; 3.0 mg/kg daily for 35 days, value marked * (two tailed Student's T Test)) [%] | Serum cholesterol (in words) (serum cholesterol; 0.1 mg/kg/day) | Uterine weight (in words) ([1]; 0.1 mg/kg/day) | prevention of bone loss (in words) ([4]; ovariectomized rats, 35 days) | eosinophil infiltration into the uterus (in words) ([3]; stromal layer of ovariectomized rats)
1 | COc1ccc2c(c1)CCC(C1CCCCC1)=C2C(=O)c1ccc(OCCN2CCCCC2)cc1 [Example 4, [3,4-Dihydro-2-cyclohexyl-6-methoxynaphthalen-1-yl][4-[2-(1-piperdinyl)ethoxy]phenyl]methanone] | – | 65.5 | 56.6 | 58.3 | 32.0 | 30.7 | 24.2 | 2.1 | 8.1 | 10.6 | – | – | – | – | – | – | – | –
2 | C#C[C@]1(O)CC[C@H]2[C@@H]3CCc4cc(O)ccc4[C@H]3CC[C@@]21C [EE2, 17α-ethynyl estradiol, reference compound] | – | 81.4 | – | – | 86.3 | – | – | 116.4 | – | – | – | 60.9 | – | – | caused a decrease in serum cholesterol | uterine weight was substantially greater than the uterine weight of ovariectomized test animals | prevented this loss | substantial, expected increase in eosinophil infiltration

More lines, main results first:

Row | IC50 [2] [nM] | SMILES | Serum Cholesterol (% decrease vs. OVX) (serum cholesterol; 0.1 mg/kg daily for 4 days) [%] | Serum Cholesterol (% decrease vs. OVX) (serum cholesterol; 1.0 mg/kg daily for 4 days) [%] | Serum Cholesterol (% decrease vs. OVX) (serum cholesterol; 10.0 mg/kg daily for 4 days) [%] | Uterine Weight (% increase vs. OVX) ([1]; 0.1 mg/kg daily for 4 days) [%] | Uterine Weight (% increase vs. OVX) ([1]; 1.0 mg/kg daily for 4 days) [%] | Uterine Weight (% increase vs. OVX) ([1]; 10.0 mg/kg daily for 4 days) [%] | Uterine EPO (V. max) ([3]; 0.1 mg/kg daily for 4 days) | Uterine EPO (V. max) ([3]; 1.0 mg/kg daily for 4 days) | Uterine EPO (V. max) ([3]; 10.0 mg/kg daily for 4 days) | Tibia BMD pQCT (% protection) ([4]; 0.01 mg/kg daily for 35 days) [%] | Tibia BMD pQCT (% protection) [4, 5] [%] | Tibia BMD pQCT (% protection) ([4]; 1.0 mg/kg daily for 35 days) [%] | Tibia BMD pQCT (% protection) ([4]; 3.0 mg/kg daily for 35 days, value marked * (two tailed Student's T Test)) [%] | Serum cholesterol (in words) (serum cholesterol; 0.1 mg/kg/day) | Uterine weight (in words) ([1]; 0.1 mg/kg/day) | prevention of bone loss (in words) ([4]; ovariectomized rats, 35 days) | eosinophil infiltration into the uterus (in words) ([3]; stromal layer of ovariectomized rats)
3 | 1 | Oc1ccc2c(Cc3ccc(OCCN4CCCCC4)cc3)c([C@H]3CC[C@H](O)CC3)ccc2c1 [Example 2, hydrochloride] | 57.8 | 71.8 | 34.9 | 32.0 | 17.1 | 6.7 | 4.8 | 4.8 | 3.6 | – | – | – | – | – | – | – | –
4 | 10 | COc1ccc2c(Cc3ccc(OCCN4CCCCC4)cc3)c(C3CCCCC3)ccc2c1 [Example 5, [2-Cyclohexyl-6-methoxynaphthalen-1-yl][4-[2-(1-piperdinyl)ethoxy]phenyl]methane] | 77.6 | 76.3 | 65.8 | 21.2 | 10.4 | 6.4 | 21.2 | 4.2 | 5.3 | – | – | – | – | – | – | – | –
5 | 0.6 | Oc1ccc2c(Cc3ccc(OCCN4CCCCC4)cc3)c(C3CCCCC3)ccc2c1 [Example 6, [2-Cyclohexyl-6-hydroxynaphthalen-1-yl][4-[2-(1-piperdinyl)ethoxy]phenyl]methane hydrochloride] | 57.4 | 46.8 | 63.9 | 65.7 | 22.8 | 22.0 | 17.7 | 4.2 | 4.5 | 23.1 | 52.6 | 30.1 | 59.6 | – | – | – | –
6 | 10 | CCc1ccc2cc(O)ccc2c1Cc1ccc(OCCN2CCCCC2)cc1 [Example 1, [2-Ethyl-6-hydroxynaphthalen-1-yl][4-[2-(1-piperdinyl)ethoxy]phenyl]methanehydrochloride] | 20.3 | 23.1 | 38.6 | -3.3 | 3.0 | 60.2 | 6.6 | 12.0 | 12.0 | – | – | – | – | – | – | – | –
